Laboratory results: ChEMBL document CHEMBL4673300, “Fragment-Based Discovery of Novel Non-Hydroxamate LpxC Inhibitors with Antibacterial Activity” (J Med Chem, 2020)
Converted amounts (≈) assume the structure as drawn. The source made the active and inactive calls. The calls are words filed in the database; no cut-off is given here.

Experiments:
[1] = target: T1, UDP-3-O-acyl-N-acetylglucosamine deacetylase (Pseudomonas aeruginosa (strain ATCC 15692 / PAO1 / 1C / PRS 101 / LMG12228), UniProt P47205); assay: Displacement of (S)-N-(2-(N-(3-biphenyl-4-ylcarboxamido-4-(hydroxyamino)-4-oxobutyl)sulfamoyl)ethyl)-3',6'-dihydroxy-3-oxo-3H-spiro[isobenzofuran-1,9'-xanthene]-5-carboxamide fluorescent probe from histidine tagged Pseudomonas aeruginosa LpxC (1-303) expressed in Escherichia coli BL21 (DE3) preincubated for 30 mins followed by addition of fluorscein probe measured after 2 hrs by fluorescence …
T1 sequence (P47205 whole entry): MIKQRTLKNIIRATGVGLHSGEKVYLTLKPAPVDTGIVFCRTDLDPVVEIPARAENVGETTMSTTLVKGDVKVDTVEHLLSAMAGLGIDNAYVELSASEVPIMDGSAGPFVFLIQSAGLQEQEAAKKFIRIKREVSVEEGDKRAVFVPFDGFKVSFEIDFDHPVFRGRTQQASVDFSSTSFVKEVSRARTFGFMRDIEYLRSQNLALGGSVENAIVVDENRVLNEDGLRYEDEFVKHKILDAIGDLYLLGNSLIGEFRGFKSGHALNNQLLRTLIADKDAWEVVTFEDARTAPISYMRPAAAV

[2] = target: T1, UDP-3-O-acyl-N-acetylglucosamine deacetylase; assay: Inhibition of histidine-tagged Pseudomonas aeruginosa LpxC (1-303) expressed in Escherichia coli BL21 (DE3) using UDP-3-O-(R-3-hydroxydecanoyl)-N-acetylglucosamine as substrate measured after 60 mins by Fluorescence plate reader analysis
[3] = target: T1, UDP-3-O-acyl-N-acetylglucosamine deacetylase; assay: Inhibition of histidine-tagged Pseudomonas aeruginosa LpxC (1-303) expressed in Escherichia coli BL21 (DE3) using UDP-3-O-(R-3-hydroxydecanoyl)-N-acetylglucosamine as substrate measured after 60 mins by LC-MS/MS analysis
Pseudomonas aeruginosa [4] = assay: Antibacterial activity against Pseudomonas aeruginosa ATCC 27853 by CLSI method; assay type: functional
Pseudomonas aeruginosa [5] = assay: Antibacterial activity against Pseudomonas aeruginosa 5567 in absence of human serum albumin by CLSI method; assay type: functional
Escherichia coli [6] = assay: Antibacterial activity against Escherichia coli ATCC 25922 by CLSI method; assay type: functional
Pseudomonas aeruginosa [7] = assay: Antibacterial activity against Pseudomonas aeruginosa 5567 in presence of human serum albumin by CLSI method; assay type: functional
Klebsiella pneumoniae = assay: Antibacterial activity against Klebsiella pneumoniae ATCC 13883 by CLSI method; assay type: functional
[8] = target: Matrix metalloproteinase-9 (Homo sapiens, UniProt P14780); assay: Inhibition of human MMP-9 by fluorometric assay
[9] = target: 72 kDa type IV collagenase (Homo sapiens, UniProt P08253); assay: Inhibition of human MMP-2 by fluorometric assay
Stromelysin-1 = Stromelysin-1 (Homo sapiens, UniProt P08254); assay: Inhibition of human MMP-3 by fluorometric assay
Escherichia coli [10] = assay: Antibacterial activity against Escherichia coli ATCC 25922 in presence of efflux pump inhibitor phenylalanine-arginine beta-naphthylamideby CLSI method; assay type: functional
Pseudomonas aeruginosa [11] = assay: Antibacterial activity against Pseudomonas aeruginosa ATCC 27853 in presence of efflux pump inhibitor phenylalanine-arginine beta-naphthylamide by CLSI method; assay type: functional

Sequence of Matrix metalloproteinase-9 (P14780 whole entry): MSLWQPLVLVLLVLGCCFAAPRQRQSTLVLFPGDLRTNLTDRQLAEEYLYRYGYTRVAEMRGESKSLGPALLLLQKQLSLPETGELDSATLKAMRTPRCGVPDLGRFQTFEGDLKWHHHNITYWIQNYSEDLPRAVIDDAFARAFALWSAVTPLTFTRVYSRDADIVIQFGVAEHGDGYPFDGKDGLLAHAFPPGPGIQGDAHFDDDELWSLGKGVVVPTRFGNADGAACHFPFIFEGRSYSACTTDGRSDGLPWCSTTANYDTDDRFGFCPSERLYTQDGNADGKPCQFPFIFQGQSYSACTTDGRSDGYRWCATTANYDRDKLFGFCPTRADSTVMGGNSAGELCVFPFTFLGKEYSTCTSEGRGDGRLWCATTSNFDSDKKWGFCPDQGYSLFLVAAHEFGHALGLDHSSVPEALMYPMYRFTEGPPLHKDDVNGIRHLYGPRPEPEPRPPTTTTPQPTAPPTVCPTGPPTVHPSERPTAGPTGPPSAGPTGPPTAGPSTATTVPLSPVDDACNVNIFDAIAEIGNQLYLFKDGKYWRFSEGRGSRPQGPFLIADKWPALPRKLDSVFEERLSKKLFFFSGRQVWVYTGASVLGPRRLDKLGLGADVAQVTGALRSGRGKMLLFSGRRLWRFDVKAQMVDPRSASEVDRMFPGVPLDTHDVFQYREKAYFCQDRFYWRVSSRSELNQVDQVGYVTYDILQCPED
Sequence of 72 kDa type IV collagenase (P08253 whole entry): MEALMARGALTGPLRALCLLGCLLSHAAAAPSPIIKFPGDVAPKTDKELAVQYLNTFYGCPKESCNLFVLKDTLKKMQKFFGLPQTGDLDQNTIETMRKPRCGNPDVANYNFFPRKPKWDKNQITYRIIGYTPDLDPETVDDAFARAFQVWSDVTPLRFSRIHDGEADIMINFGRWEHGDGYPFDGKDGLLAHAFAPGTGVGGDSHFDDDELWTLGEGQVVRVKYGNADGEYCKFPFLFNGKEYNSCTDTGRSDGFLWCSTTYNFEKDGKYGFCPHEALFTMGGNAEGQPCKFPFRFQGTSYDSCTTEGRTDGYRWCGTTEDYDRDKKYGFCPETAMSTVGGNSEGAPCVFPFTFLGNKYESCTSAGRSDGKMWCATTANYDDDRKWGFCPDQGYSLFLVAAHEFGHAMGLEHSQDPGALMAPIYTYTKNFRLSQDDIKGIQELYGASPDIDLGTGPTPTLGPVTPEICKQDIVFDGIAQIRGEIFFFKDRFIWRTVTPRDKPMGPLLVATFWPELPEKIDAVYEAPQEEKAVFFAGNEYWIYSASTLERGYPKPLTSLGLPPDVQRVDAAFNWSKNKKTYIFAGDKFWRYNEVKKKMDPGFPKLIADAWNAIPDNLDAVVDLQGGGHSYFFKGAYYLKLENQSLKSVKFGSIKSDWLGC
Sequence of Stromelysin-1 (P08254 whole entry): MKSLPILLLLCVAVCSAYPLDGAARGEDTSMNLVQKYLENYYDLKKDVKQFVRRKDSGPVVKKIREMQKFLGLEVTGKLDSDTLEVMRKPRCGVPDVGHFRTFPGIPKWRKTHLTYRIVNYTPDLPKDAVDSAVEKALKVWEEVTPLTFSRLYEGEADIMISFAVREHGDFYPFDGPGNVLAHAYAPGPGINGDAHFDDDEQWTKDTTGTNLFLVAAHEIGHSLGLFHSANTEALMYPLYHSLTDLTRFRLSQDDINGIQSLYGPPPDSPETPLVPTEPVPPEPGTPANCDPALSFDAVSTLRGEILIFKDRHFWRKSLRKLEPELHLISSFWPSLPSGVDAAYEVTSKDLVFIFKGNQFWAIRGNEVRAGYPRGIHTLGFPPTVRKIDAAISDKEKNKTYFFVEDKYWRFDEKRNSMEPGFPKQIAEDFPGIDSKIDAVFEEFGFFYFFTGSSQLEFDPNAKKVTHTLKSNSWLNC

## OC(COc1ccccc1)Cn1ccnc1 (racemic)
[1]
  IC50: > 2000 µM
[2]
  IC50: 1130 µM

## N[C@H](CO)C(=O)N1CCC(Cc2ccccc2)CC1
[3]
  IC50: 24.9 µM

## Clc1ccc(CCn2ccnc2)cc1
[1]
  IC50: 2780 µM

## OC(COc1ccc(Cl)cc1)Cn1ccnc1 (racemic)
[1]
  IC50: 259 µM
[2]
  IC50: 466 µM

## OCc1nccn1CCCc1ccc(Cl)cc1
[1]
  IC50: 36.7 µM
[2]
  IC50: 108 µM

## C[C@H](O)c1nccn1Cc1cc(C#Cc2ccc(OC3CN(CCO)C3)cc2)on1
Pseudomonas aeruginosa [4]
  MIC: 4 µg/mL (≈ 9.79 µM)
Pseudomonas aeruginosa [5]
  MIC: 4 µg/mL (≈ 9.79 µM)
Escherichia coli [6]
  MIC: 4 µg/mL (≈ 9.79 µM)
Pseudomonas aeruginosa [7]
  MIC: 16 µg/mL
[2]
  IC50: 0.00442 µM
Klebsiella pneumoniae
  MIC: 4 µg/mL (≈ 9.79 µM)

## C[C@H](O)c1nccn1Cc1cc(C#Cc2ccc(OCC(N)(CO)CO)cc2)on1
Pseudomonas aeruginosa [4]
  MIC: 4 µg/mL (≈ 9.7 µM)
Pseudomonas aeruginosa [5]
  MIC: 4 µg/mL (≈ 9.7 µM)
Escherichia coli [6]
  MIC: 16 µg/mL (≈ 38.8 µM)
[8]
  IC50: > 100 µM
Pseudomonas aeruginosa [7]
  MIC: 8 µg/mL
[9]
  IC50: > 100 µM
[2]
  IC50: 0.02 µM
Klebsiella pneumoniae
  MIC: 64 µg/mL (≈ 155 µM)
Stromelysin-1
  IC50: > 100 µM

## CNC(=O)[C@H](Cc1c[nH]c2ccccc12)NC(=O)[C@@H](CC(=O)NO)CC(C)C [ILOMASTAT]
Stromelysin-1
  IC50: 0.015 µM

## CC(O)c1nccn1Cc1ccc(C#Cc2ccccc2)cc1 (racemic)
Escherichia coli [10]
  Activity: inactive
[1]
  IC50: 0.0929 µM
[2]
  IC50: 0.568 µM

## Clc1ccc(CCCn2ccnc2)cc1
[1]
  IC50: 125 µM
[2]
  IC50: 111 µM

## Clc1ccc(OCCCn2ccnc2)cc1
[1]
  IC50: 118 µM
[2]
  IC50: 144 µM

## O=C(NO)[C@@H](Cc1ccc2ccccc2c1)NS(=O)(=O)c1ccc2ccccc2c1
[8]
  IC50: 0.0972 µM
[9]
  IC50: 0.0175 µM
Stromelysin-1
  IC50: 0.416 µM

## NCC(=O)Nc1cccc(OC(F)(F)F)c1
[1]
  IC50: 54.9 µM
[3]
  IC50: 41.9 µM

## C[C@H](O)c1nccn1Cc1cc(C#Cc2ccc(OCCCNCCN)cc2)on1
Pseudomonas aeruginosa [4]
  MIC: 2 µg/mL (≈ 4.88 µM)
Pseudomonas aeruginosa [5]
  MIC: 4 µg/mL (≈ 9.77 µM)
Escherichia coli [6]
  MIC: 2 µg/mL (≈ 4.88 µM)
Pseudomonas aeruginosa [7]
  MIC: 16 µg/mL
[2]
  IC50: 0.00704 µM
Klebsiella pneumoniae
  MIC: 32 µg/mL (≈ 78.1 µM)

## Clc1ccc(CCCCn2ccnc2)cc1
[1]
  IC50: 43.2 µM
[2]
  IC50: 60.4 µM

## N[C@H](CO)C(=O)N1CCC(Cc2ccc(C#Cc3ccccc3)cc2)CC1
[3]
  IC50: 0.034 µM

## N[C@H](CO)C(=O)N1CCC(Cc2ccc(C#Cc3ccc(CO)cc3)cc2)CC1
Pseudomonas aeruginosa [4]
  MIC: > 32 µg/mL
Pseudomonas aeruginosa [11]
  MIC: 32 µg/mL
Escherichia coli [6]
  MIC: > 32 µg/mL
Escherichia coli [10]
  MIC: 16 µg/mL
[3]
  IC50: 0.0221 µM

## C[C@@H](O)c1nccn1Cc1cc(C#Cc2ccc(CCCO)cc2)on1
Pseudomonas aeruginosa [4]
  MIC: > 128 µg/mL
Pseudomonas aeruginosa [5]
  MIC: > 128 µg/mL
Escherichia coli [6]
  MIC: > 128 µg/mL
Pseudomonas aeruginosa [7]
  MIC: > 128 µg/mL
[2]
  IC50: 1.4 µM
Klebsiella pneumoniae
  MIC: > 128 µg/mL

## CC(O)c1nccn1Cc1ccc(Cl)cc1 (racemic)
[1]
  IC50: 39.9 µM
[2]
  IC50: 214 µM

## CS(=O)(=O)NC[C@@H](N)C(=O)Nc1cccc(OC(F)(F)F)c1
[1]
  IC50: 37.9 µM
[3]
  IC50: 43.8 µM

## N[C@H](CO)C(=O)N1CCC(Cc2ccc(-c3ccccc3)cc2)CC1
[3]
  IC50: 0.66 µM

## CS(=O)(=O)C[C@H](O)[C@@H](N)C(=O)N1CCC(Cc2ccc(C#Cc3ccc(CO)cc3)cc2)CC1 (racemic)
Pseudomonas aeruginosa [4]
  MIC: 64 µg/mL (≈ 132 µM)
Pseudomonas aeruginosa [11]
  MIC: 8 µg/mL
Escherichia coli [6]
  MIC: 64 µg/mL (≈ 132 µM)
[8]
  IC50: > 100 µM
Escherichia coli [10]
  MIC: 1 µg/mL
[9]
  IC50: > 100 µM
Stromelysin-1
  IC50: > 100 µM

## CC(O)c1nccn1Cc1cc(C#Cc2ccccc2)on1 (racemic)
Pseudomonas aeruginosa [4]
  MIC: > 128 µg/mL
Pseudomonas aeruginosa [5]
  MIC: 64 µg/mL (≈ 218 µM)
Escherichia coli [6]
  MIC: 16 µg/mL (≈ 54.5 µM)
Pseudomonas aeruginosa [7]
  MIC: > 128 µg/mL
[1]
  IC50: 0.0206 µM
[2]
  IC50: 0.0475 µM
Klebsiella pneumoniae
  MIC: 32 µg/mL (≈ 109 µM)

## N[C@H](CC(=O)O)C(=O)Nc1cccc(OC(F)(F)F)c1
[1]
  IC50: 5.69 µM
[3]
  IC50: 11.3 µM

## N[C@H](CO)C(=O)N1CCC(Cc2ccc(CCc3ccccc3)cc2)CC1
[3]
  IC50: 4.53 µM

## NC[C@@H](N)C(=O)Nc1cccc(OC(F)(F)F)c1
[1]
  IC50: 40.1 µM
[3]
  IC50: 36.7 µM

## CS(=O)(=O)CC[C@@H](N)C(=O)Nc1cccc(OC(F)(F)F)c1
[1]
  IC50: 8.97 µM
[3]
  IC50: 10 µM

## C[C@H](O)c1nccn1Cc1cc(C#Cc2ccc(CCCO)cc2)on1
Pseudomonas aeruginosa [4]
  MIC: 32 µg/mL (≈ 91.1 µM)
Pseudomonas aeruginosa [5]
  MIC: 16 µg/mL (≈ 45.5 µM)
Escherichia coli [6]
  MIC: 0.5 µg/mL (≈ 1.42 µM)
Pseudomonas aeruginosa [7]
  MIC: > 64 µg/mL
[2]
  IC50: 0.00403 µM
Klebsiella pneumoniae
  MIC: 2 µg/mL (≈ 5.69 µM)

## CC(O)c1nccn1Cc1cc(C#Cc2ccc(CCCO)cc2)on1 (racemic)
Pseudomonas aeruginosa [4]
  MIC: 64 µg/mL (≈ 182 µM)
Pseudomonas aeruginosa [5]
  MIC: 32 µg/mL (≈ 91.1 µM)
Escherichia coli [6]
  MIC: 2 µg/mL (≈ 5.69 µM)
Pseudomonas aeruginosa [7]
  MIC: > 128 µg/mL
[2]
  IC50: 0.00896 µM
Klebsiella pneumoniae
  MIC: 4 µg/mL (≈ 11.4 µM)

## CC(O)c1nccn1CCCc1ccc(Cl)cc1 (racemic)
[1]
  IC50: 0.809 µM
[2]
  IC50: 10.4 µM

## CC(O)c1nccn1CCCc1ccc(C#Cc2ccccc2)cc1 (racemic)
[1]
  IC50: 0.0522 µM
[2]
  IC50: 0.161 µM

## CC(O)c1nccn1CCc1ccc(C#Cc2ccccc2)cc1 (racemic)
[1]
  IC50: 1.76 µM
[2]
  IC50: 2.4 µM

## CC(O)c1nccn1Cc1ccc(-c2ccccc2)cc1 (racemic)
[1]
  IC50: 0.546 µM
[2]
  IC50: 3.94 µM

## CC(O)c1nccn1CCc1ccc(-c2ccccc2)cc1 (racemic)
[1]
  IC50: 6.48 µM
[2]
  IC50: 10.4 µM

## CC(O)c1nccn1CCc1ccc(Cl)cc1 (racemic)
[1]
  IC50: 67.8 µM
[2]
  IC50: 261 µM

## CC(O)c1nccn1CCCc1ccc(-c2ccccc2)cc1 (racemic)
[1]
  IC50: 0.0269 µM
[2]
  IC50: 0.133 µM

## CS(=O)(=O)C[C@@H](N)C(=O)Nc1cccc(OC(F)(F)F)c1
[1]
  IC50: > 100 µM
[3]
  IC50: > 100 µM

## C[C@H](O)c1nccn1Cc1cc(C#Cc2ccc(OCCCNC3COC3)cc2)on1
Pseudomonas aeruginosa [4]
  MIC: 8 µg/mL (≈ 18.9 µM)
Pseudomonas aeruginosa [5]
  MIC: 8 µg/mL (≈ 18.9 µM)
Escherichia coli [6]
  MIC: 1 µg/mL (≈ 2.37 µM)
Pseudomonas aeruginosa [7]
  MIC: 64 µg/mL
[2]
  IC50: 0.00463 µM
Klebsiella pneumoniae
  MIC: 1 µg/mL (≈ 2.37 µM)

## CC(O)c1nccn1Cc1cc(-c2ccccc2)on1 (racemic)
[1]
  IC50: 0.125 µM
[2]
  IC50: 0.884 µM
